# According to patent US6372737B1 (priority 1996, dated 2002):
# Tests used:
# Assay type in all cases: in vivo
# [1] = system: Erysiphe graminis f.sp. tritici; experiment: Erysiphe test (wheat)/curative; settings: curative, 7 days after inoculation
# Procedure: (§1) Solvent: 25 parts by weight of N,N-dimethylacetamide
# (§2) Emulsifier: 0.6 part by weight of alkylaryl polyglycol ether
# (§3) To produce a suitable preparation of active compound, 1 part by weight of active compound or active compound combination is mixed with the stated amounts of solvent and emulsifier, and the concentrate is diluted with water to the desired concentration.
# To test for curative activity, young plants are dusted with spores of Erysiphe graminis f.sp. tritici. 48 hours after the inoculation, the plants are sprayed with the preparation of active compound at the stated application rate.
# (§4) The plants are placed in a greenhouse at a temperature of about 20° C. and a relative atmospheric humidity of about 80%, in order to promote the development of mildew pustules.
# (§5) Evaluation is carried out 7 days after the inoculation. 0% means an efficacy which corresponds to that of the control, whereas an efficacy of 100% means that no infection is observed.
# Leptosphaeria nodorum [2] = experiment: Leptosphaeria nodorum test (wheat)/curative; settings: curative, 10 days after inoculation
# Procedure: as §1, §2, §3
# (§6) To test for curative activity, young plants are sprayed with a conidia suspension of Leptosphaeria nodorum. The plants remain in an incubation cabin at 20° C. and 100% relative atmospheric humidity for 48 hours and are then sprayed with the preparation of active compound at the stated application rate.
# The plants are placed in a greenhouse at a temperature of about 15° C. and a relative atmospheric humidity of about 80%.
# (§7) Evaluation is carried out 10 days after the inoculation. 0% means an efficacy which corresponds to that of the control, whereas an efficacy of 100% means that no infection is observed.
# [3] = system: Erysiphe graminis fsp. tritici; experiment: Erysiphe test (wheat)/protective; settings: protective, 7 days after inoculation
# Procedure: as §1, §2, §3
# To test for protective activity, young plants are sprayed with the preparation of active compound at the stated application rate.
# After the spray coating has dried on, the plants are dusted with spores of Erysiphe graminis fsp. tritici.
# as §4, §5
# Puccinia recondita [4] = experiment: Puccinia test (wheat)/curative; settings: application rate 6.25 g/ha, curative, 10 days after inoculation
# Procedure: as §1, §2, §3
# as §6, with “Puccinia recondita.” for “Leptosphaeria nodorum.”, “hours. The plants” for “hours and”, “subsequently” for “then”
# The plants are placed in a greenhouse at a temperature of about 20° C. and a relative atmospheric humidity of about 80%, in order to promote the development of rust pustules.
# as §7
# Puccinia recondita [5] = experiment: Puccinia test (wheat)/protective; settings: application rate 6.25 g/ha, protective, 10 days after inoculation; for pest or weed control at 6.25 g/ha: Puccinia recondita, 240 h, read-out: Efficacy in %
# Procedure: as §1, §2, §3
# (§8) To test for protective activity, young plants are sprayed with the preparation of active compound at the stated application rate. After the spray coating has dried on, the plants are sprayed with a conidia suspension of Puccinia recondita. The plants remain in an incubation cabin at 20° C. and 100% relative atmospheric humidity for 48 hours.
# The plants are then placed in a greenhouse at a temperature of about 20° C. and a relative atmospheric humidity of 80%, in order to promote the development of rust pustules.
# as §7
# Leptosphaeria nodorum [6] = experiment: Leptosphaeria nodorum test (wheat)/protective; settings: application rate 6.25 g/ha, protective, 10 days after inoculation; for pest or weed control at 6.25 g/ha: Parastagonospora nodorum, 240 h, read-out: Efficacy in %
# Procedure: as §1, §2, §3
# as §8, with “spore” for “conidia”, “Leptosphaeria nodorum.” for “Puccinia recondita.”, “20EC” for “20° C.”
# The plants are placed in a greenhouse at a temperature of about 15° C. and a relative atmospheric humidity of 80%.
# as §7
# Phytophthora infestans = experiment: whole plant or invertebrate
# [7] = system: Erysiphe graminis f.sp. hordei; experiment: Erysiphe test (barley)/curative; settings: curative, 7 days after inoculation
# Procedure: as §1, §2, §3
# To test for curative activity, young plants are dusted with spores of Erysiphe graminis f.sp. hordei. 48 hours after the inoculation, the plants are sprayed with the preparation of active compound at the stated application rate.
# as §4, §5
# Sphaerotheca fuliginea = experiment: Sphaerotheca test (cucumber)/protective; settings: protective, 10 days after inoculation; for Emax at 12.5 g/ha / Emax at 2.5 g/ha: Podosphaera fuliginea, 240 h, read-out: % efficacy; for Emax at 12.5 g/ha: application rate 12.5 g/ha
# Procedure: To test for protective activity, young plants are sprayed with the commercial active compound preparation at the stated application rate. After the spray coating has dried on, the plants are inoculated with an aqueous spore suspension of Sphaerotheca fuliginea. The plants then remain in a greenhouse at about 23° C. and about 70% relative atmospheric humidity.
# Evaluation is carried out 10 days after the inoculation. 0% means an efficacy corresponding to that of the control, and an efficacy of 100% means that no infection is observed.
# Botrytis cinerea = experiment: Botrytis test (beans)/protective; settings: 48 h, application rate 250 g/ha, protective, two days after inoculation, read-out: % efficacy
# Procedure: To test for protective activity, young plants are sprayed with the commercial active compound preparation at the stated application rate. After the spray coating has dried on, 2 small pieces of agar covered with Botrytis cinerea are placed on each leaf. The inoculated plants are placed in a darkened chamber at about 20° C. and 100% relative atmospheric humidity.
# Two days after the inoculation, the size of the infected spots on the leaves is evaluated. 0% means an efficacy corresponding to that of the control, and an efficacy of 100% means that no infection is observed.
# Fusarium nivale = Fusarium nivale test (triticale)/seed treatment; settings: dry seed dressing, about 3 weeks after sowing
# Procedure: About 3 weeks after sowing, the plants are evaluated for symptoms of snow mould.
# Rhizoctonia solani = Rhizoctonia solani test (cotton)/seed treatment; settings: application rate 75 mg/kg of seed, dry seed dressing, after 8 days
# Procedure: The active compounds are applied as dry seed dressing. This is prepared by extending the respective active compound with ground mineral to give a finely pulverulent mixture which ensures uniform distribution on the seed surface.
# To dress the seed, the infected seed together with the seed dressing is shaken for 3 minutes in a sealed glass flask.
# 2×50 corns of seed are sown at a depth of 2 cm into standard soil which is infected with Rhizoctonia solani, and the seeds are cultivated in a greenhouse at a temperature of about 22° C. in seed trays which receive a light regimen of 15 hours per day.
# Evaluation is carried out after 8 days. 0% means an efficacy which corresponds to that of the untreated control, while an efficacy of 100% means that no disease is observed.
# Pyrenophora teres = Pyrenophora teres test (barley)/curative; settings: application rate 6.25 g/ha, curative, 7 days after inoculation
# Procedure: as §1, §2, §3
# as §6, with “Pyrenophora teres.” for “Leptosphaeria nodorum.”, “hours. The plants” for “hours and”, “subsequently” for “then”
# The plants are placed in a greenhouse at a temperature of about 20° C. and a relative atmospheric humidity of about 80%.
# as §5
# [8] = Phytophthora infestans, in Solanum lycopersicum, 72 h, read-out: % efficacy
# [9] = application rate 75 mg/kg of seed
# [10] = application rate 25 mg/kg of seed
# [11] = application rate 5 g/ha, tomato, protective, 3 days after inoculation
compound,measurement,setting,value
"Cc1cc(C2CC2)nc(Nc2ccccc2)n1 [(R), cyprodinyl]",Efficacy in %,[1]; application rate 25 g/ha,17%
same,Efficacy in %,Leptosphaeria nodorum [2]; application rate 6.25 g/ha,50%
same,Efficacy in %,[3]; application rate 12.5 g/ha,0%
same,Efficacy in %,Puccinia recondita [4],33%
same,pest or weed control at 6.25 g/ha,Puccinia recondita [5],13%
same,pest or weed control at 6.25 g/ha,Leptosphaeria nodorum [6],25%
same,Emax at 5 g/ha,Phytophthora infestans; [8],0%
"CO/N=C(\C(=O)OC)c1ccccc1COc1ccccc1C [(T), kresoxim-methyl]",Efficacy in %,[7]; application rate 12.5 g/ha,67%
same,Efficacy in %,[1]; application rate 6.25 g/ha,0%
same,Efficacy in %,Leptosphaeria nodorum [2]; application rate 12.5 g/ha,50%
same,Efficacy in %,[3]; application rate 25 g/ha,86%
same,pest or weed control at 6.25 g/ha,Puccinia recondita [5],25%
same,pest or weed control at 6.25 g/ha,Leptosphaeria nodorum [6],0%
same,Emax at 1 g/ha,Phytophthora infestans; [8],14%
"Cc1ccc(N(SC(F)(Cl)Cl)S(=O)(=O)N(C)C)cc1 [(B2), tolylfluanide]",% efficacy,Sphaerotheca fuliginea; application rate 25 g/ha,22%
"CC1(C)CCC(Cc2ccc(Cl)cc2)C1(O)Cn1cncn1 (centres unmarked) [(W), metconazole]",Efficacy in %,[7]; application rate 6.25 g/ha,33%
same,Efficacy in %,Leptosphaeria nodorum [2]; application rate 12.5 g/ha,25%
same,Efficacy in %,[3]; application rate 6.25 g/ha,43%
same,Efficacy in %,Puccinia recondita [4],50%
same,pest or weed control at 6.25 g/ha,Puccinia recondita [5],75%
same,pest or weed control at 6.25 g/ha,Leptosphaeria nodorum [6],50%
"O=[N+]([O-])c1cc(C(F)(F)F)c(Cl)c([N+](=O)[O-])c1Nc1ncc(C(F)(F)F)cc1Cl [(π), fluazinam]",Emax at 5 g/ha,Phytophthora infestans; [8],11%
"CCO[PH](=O)O [(O), fosetyl-Al]",Emax at 250 g/ha,Botrytis cinerea,4%
"N#Cc1c[nH]cc1-c1cccc(Cl)c1Cl [(Fenpiclonil) V, fenpiclonil]",Efficacy in %,Fusarium nivale; [9],67%
"COCC(=O)N(c1c(C)cccc1C)C(C)C(=O)OC (centres unmarked) [(N), metalaxyl]",Emax at 5 g/ha,Phytophthora infestans; [8],1%
"CC(C)(C)C(O)C(Oc1ccc(Cl)cc1)n1cncn1 (centres unmarked) [(F), triadimenol]",Efficacy in %,[7]; application rate 6.25 g/ha,67%
same,Efficacy in %,Fusarium nivale; [10],52%
same,Efficacy in %,Rhizoctonia solani,48%
same,Efficacy in %,Leptosphaeria nodorum [2]; application rate 6.25 g/ha,25%
same,Efficacy in %,Pyrenophora teres,0%
same,pest or weed control at 6.25 g/ha,Puccinia recondita [5],13%
same,pest or weed control at 6.25 g/ha,Leptosphaeria nodorum [6],0%
same,Emax at 5 g/ha,Phytophthora infestans; [8],0%
"O=C(Nc1ccccc1)N(Cc1ccc(Cl)cc1)C1CCCC1 [(ρ), pencycuron]",Efficacy in %,Fusarium nivale; [10],29%
mancozeb [(II)],% efficacy,"Phytophthora infestans; application rate 50 g/ha, tomato, protective, 3 days after inoculation",54%
propineb [(A)],% efficacy,Sphaerotheca fuliginea; application rate 25 g/ha,45%
"O=C1c2ccccc2C(=O)N1SC(Cl)(Cl)Cl [(K), folpet]",Emax at 10 g/ha,Phytophthora infestans; [8],27%
"N#Cc1c[nH]cc1-c1cccc2c1OC(F)(F)O2 [(Y), fludioxonil]",Efficacy in %,Fusarium nivale; [9],92%
same,Efficacy in %,[1]; application rate 25 g/ha,0%
same,pest or weed control at 6.25 g/ha,Puccinia recondita [5],13%
same,pest or weed control at 6.25 g/ha,Leptosphaeria nodorum [6],25%
"Cc1cc(C)nc(Nc2ccccc2)n1 [(Q), pyrimethanil]",Emax at 12.5 g/ha,Sphaerotheca fuliginea,10%
"O=C1C2CC=CCC2C(=O)N1SC(Cl)(Cl)Cl (centres unmarked) [(θ), captan]",Emax at 12.5 g/ha,Sphaerotheca fuliginea,0%
"CO/C=C(/C(=O)OC)c1ccccc1Oc1cc(Oc2ccccc2C#N)ncn1 [(U), azoxystrobin]",Emax at 2.5 g/ha,Sphaerotheca fuliginea; application rate 2.5 g/ha,57%
"CC(C)(C)C(=O)C(Oc1ccc(Cl)cc1)n1cncn1 (centres unmarked) [(E), triadimefon]",Emax at 2.5 g/ha,Sphaerotheca fuliginea; application rate 2.5 g/ha,30%
"CN(C)S(=O)(=O)N(SC(F)(Cl)Cl)c1ccccc1 [(B1), dichlorofluanide]",% efficacy,Sphaerotheca fuliginea; application rate 25 g/ha,20%
"CCC1(C(=O)N[C@H](C)c2ccc(Cl)cc2)C(C)C1(Cl)Cl (stereo partly drawn) [(ω), N-(R)-[1-(4-chloro-phenyl)-ethyl]-2,2-dichloro-1-ethyl-3t-methyl-1r-cyclopropane-carboxarnide]",% efficacy,Phytophthora infestans; [11],5%
"COc1ccc(/C(=C/C(=O)N2CCOCC2)c2ccc(Cl)cc2)cc1OC [(L), dimetomorph]",Emax at 1 g/ha,Phytophthora infestans; [8],0%
cymoxanil [(M)],% efficacy,Phytophthora infestans; in vivo,12%
"CC(C)(C)C(O)(CCc1ccc(Cl)cc1)Cn1cncn1 (centres unmarked) [(D), tebuconazole]",Efficacy in %,[7]; application rate 6.25 g/ha,33%
same,Efficacy in %,[7]; application rate 25 g/ha,83%
same,Efficacy in %,Fusarium nivale; [10],20%
same,Efficacy in %,[3]; application rate 6.25 g/ha,0%
same,pest or weed control at 6.25 g/ha,Puccinia recondita [5],38%
same,pest or weed control at 6.25 g/ha,Leptosphaeria nodorum [6],25%
same,Emax at 5 g/ha,Phytophthora infestans; [8],26%
"CCCN(CC)CC1COC2(CCC(C(C)(C)C)CC2)O1 (centres unmarked) [(δ), 8-t-butyl-2-(N-ethyl-N-n-propyl-amino)-methyl-1,4-dioxaspiro[5.4]-decane]",Efficacy in %,[7]; application rate 6.25 g/ha,0%
same,Efficacy in %,Leptosphaeria nodorum [2]; application rate 12.5 g/ha,25%
same,Efficacy in %,[3]; application rate 6.25 g/ha,14%
same,% efficacy,Sphaerotheca fuliginea; application rate 2.5 g/ha,10%
same,Efficacy in %,Puccinia recondita [5],13%
same,Efficacy in %,Leptosphaeria nodorum [6],25%
"CC(C)(C)C(O)C(Oc1ccc(-c2ccccc2)cc1)n1cncn1 (centres unmarked) [(C), bitertanol]",Emax at 2.5 g/ha,Sphaerotheca fuliginea; application rate 2.5 g/ha,20%
"Fc1ccc([C@]2(Cn3cncn3)O[C@H]2c2ccccc2Cl)cc1 (racemic) [(V), epoxiconazole]",Efficacy in %,[7]; application rate 12.5 g/ha,92%
same,pest or weed control at 6.25 g/ha,Puccinia recondita [5],81%
same,pest or weed control at 6.25 g/ha,Leptosphaeria nodorum [6],50%
CSC(=O)c1cccc2nnsc12 [(β)],% efficacy,Phytophthora infestans; [11],0%
"CC1(C(=O)Nc2ccc(O)c(Cl)c2Cl)CCCCC1 [(ε), 2,3-dichloro-4-(1-methylcyclohexylcarbonylamino)-phenol]",Emax at 5 g/ha,Phytophthora infestans; [8],14%
